From ChEMBL document CHEMBL4680265, “Anti-tubulin agent vinorelbine inhibits metastasis of cancer cells by regulating epithelial-mesenchymal transition” (Eur J Med Chem, 2020)
Active and inactive are the calls of the source. No cut-off for these calls is given here.

What was measured:
[1] = test system: HCT-116; assay: Inhibition of epithelial-mesenchymal transition in human HCT-116 cells assessed as increase in E-cadherin expression at 0.01 to 1 uM by Western blot analysis; type: functional, cell-based; settings: dose 0.01-1 µM
[2] = test system: HCT-116; assay: Inhibition of epithelial-mesenchymal transition in human HCT-116 cells assessed as decrease in Vimentin expression at 0.01 to 1 uM by Western blot analysis; type: functional, cell-based; settings: dose 0.01-1 µM
[3] = test system: HepG2; assay: Inhibition of colony formation in human HepG2 cells at 0.1 to 10 uM incubated for 3 to 4 days by crystal violet staining based assay; type: functional, cell-based; settings: dose 0.1-10 µM, time 3-4 day
[4] = test system: NCI-H1975; assay: Antimigratory activity against human NCI-H1975 cells assessed as reduction in migration at 10 nM measured after 96 hrs by scratch wound healing based inverted microscopic analysis relative to control; type: functional
[5] = test system: HCT-116; assay: Induction of apoptosis in human HCT-116 cells assessed as increase in late apoptotic cells at 0.01 to 1 uM incubated for 48 hrs by annexin V-FITC and PI staining based flow cytometry analysis; type: functional, cell-based; settings: dose 0.01-1 µM
[6] = test system: HepG2; assay: Induction of apoptosis in human HepG2 cells assessed as decrease in Bcl-xl expression at 0.1 to 10 uM incubated for 48 hrs by Western blot analysis; type: functional, cell-based; settings: dose 0.1-10 µM
[7] = test system: HCT-116; assay: Induction of apoptosis in human HCT-116 cells assessed as increase in Bax expression at 0.01 to 1 uM incubated for 48 hrs by Western blot analysis; type: functional, cell-based; settings: dose 0.01-1 µM
[8] = test system: HCT-116; assay: Antimigratory activity against human HCT-116 cells assessed as reduction in migration at 10 nM measured after 96 hrs by scratch wound healing based inverted microscopic analysis relative to control; type: functional
[9] = test system: HCT-116; assay: Induction of cell cycle arrest in human HCT-116 cells assessed as decrease in cyclin B1 level at 0.01 to 1 uM incubated for 24 hrs by Western blot analysis; type: functional, cell-based; settings: dose 0.01-1 µM
[10] = test system: NCI-H1975; assay: Antimigratory activity against human NCI-H1975 cells assessed as reduction in migration at 5 nM measured after 96 hrs by scratch wound healing based inverted microscopic analysis relative to control; type: functional
[11] = test system: HCT-116; assay: Antiinvasive activity against human HCT-116 cells assessed as reduction in invasion at 1 to 10 nM measured after 48 hrs by DAPI staining based transwell assay; type: functional, cell-based; settings: dose 1-10 nM
[12] = test system: HCT-116; assay: Inhibition of epithelial-mesenchymal transition in human HCT-116 cells assessed as downregulation of MMP-9 by Western blot analysis; type: functional, cell-based; settings: dose 0.01-1 µM
[13] = test system: HepG2; assay: Antiinvasive activity against human HepG2 cells assessed as reduction in invasion at 0.1 to 10 nM measured after 48 hrs by DAPI staining based transwell assay; type: functional, cell-based; settings: dose 0.1-10 nM
[14] = test system: HCT-116; assay: Antimigratory activity against human HCT-116 cells assessed as reduction in migration at 5 nM measured after 96 hrs by scratch wound healing based inverted microscopic analysis relative to control; type: functional
[15] = test system: HepG2; assay: Inhibition of epithelial-mesenchymal transition in human HepG2 cells assessed as decrease in N-cadherin expression at 0.1 to 10 uM by Western blot analysis; type: functional, cell-based; settings: dose 0.1-10 µM
[16] = test system: NCI-H1975; assay: Cytotoxicity against human NCI-H1975 cells assessed as effect on cell morphology incubated for 48 hrs by DAPI staining based fluorescence microscopy; type: functional; settings: dose 1-100 nM
[17] = test system: NCI-H1975; assay: Inhibition of epithelial-mesenchymal transition in human NCI-H1975 cells assessed as downregulation of Snail-1 by Western blot analysis; type: functional, cell-based; settings: dose 1-100 nM
[18] = test system: HCT-116; assay: Inhibition of epithelial-mesenchymal transition in human HCT-116 cells assessed as decrease in N-cadherin expression at 0.01 to 1 uM by Western blot analysis; type: functional, cell-based; settings: dose 0.01-1 µM
[19] = test system: HepG2; assay: Induction of apoptosis in human HepG2 cells assessed as increase in Bax expression at 0.1 to 10 uM incubated for 48 hrs by Western blot analysis; type: functional, cell-based; settings: dose 0.1-10 µM
[20] = test system: HepG2; assay: Induction of cell cycle arrest in human HepG2 cells assessed as decrease in cyclin B1 level at 0.1 to 10 uM incubated for 24 hrs by Western blot analysis; type: functional, cell-based; settings: dose 0.1-10 µM
[21] = test system: NCI-H1975; assay: Inhibition of epithelial-mesenchymal transition in human NCI-H1975 cells assessed as decrease in N-cadherin expression at 1 to 100 nM by Western blot analysis; type: functional, cell-based; settings: dose 1-100 nM
[22] = test system: HCT-116; assay: Inhibition of epithelial-mesenchymal transition in human HCT-116 cells assessed as downregulation of Snail-1 by Western blot analysis; type: functional, cell-based; settings: dose 0.01-1 µM
[23] = test system: HepG2; assay: Inhibition of epithelial-mesenchymal transition in human HepG2 cells assessed as […] in E-cadherin expression at 0.1 to 10 uM by Western blot analysis; type: functional, cell-based; settings: dose 0.1-10 µM
[24] = test system: HepG2; assay: Antimigratory activity against human HepG2 cells assessed as reduction in migration at 10 nM measured after 96 hrs by scratch wound healing based inverted microscopic analysis relative to control; type: functional
[25] = test system: HCT-116; assay: Inhibition of epithelial-mesenchymal transition in human HCT-116 cells assessed as downregulation of MMP-2 by Western blot analysis; type: functional, cell-based; settings: dose 0.01-1 µM
[26] = test system: HCT-116; assay: Induction of apoptosis in human HCT-116 cells assessed as decrease in Bcl-2 expression at 0.01 to 1 uM incubated for 48 hrs by Western blot analysis; type: functional, cell-based; settings: dose 0.01-1 µM
[27] = test system: HCT-116; assay: Antimigratory activity against human HCT-116 cells assessed as reduction in migration at 1 nM measured after 96 hrs by scratch wound healing based inverted microscopic analysis relative to control; type: functional
[28] = test system: HCT-116; assay: Induction of apoptosis in human HCT-116 cells assessed as decrease in Bcl-xl expression at 0.01 to 1 uM incubated for 48 hrs by Western blot analysis; type: functional, cell-based; settings: dose 0.01-1 µM
[29] = test system: HepG2; assay: Induction of apoptosis in human HepG2 cells assessed as decrease in Bcl-2 expression at 0.1 to 10 uM incubated for 48 hrs by Western blot analysis; type: functional, cell-based; settings: dose 0.1-10 µM
[30] = test system: HepG2; assay: Cytotoxicity against human HepG2 cells assessed as effect on cell morphology incubated for 48 hrs by DAPI staining based fluorescence microscopy; type: functional; settings: dose 0.1-10 µM

CCC1=C[C@@H]2CN(C1)Cc1c([nH]c3ccccc13)[C@@](C(=O)OC)(c1cc3c(cc1OC)N(C)[C@H]1[C@@](O)(C(=O)OC)[C@H](OC(C)=O)[C@]4(CC)C=CCN5CC[C@]31[C@@H]54)C2 [VINORELBINE]
inhibition [1]: Active
inhibition [2]: inactive
inhibition [3]: Active
inhibition at 0.01 µM [4]: 70.5%
Activity [5]: Active
Activity [6]: Active
Activity [7]: Active
inhibition at 0.01 µM [8]: 50.9%
Activity [9]: inactive
inhibition at 0.005 µM [10]: 52.6%
inhibition [11]: Active
inhibition [12]: Dose-dependent effect
inhibition [13]: Active
inhibition at 0.005 µM [14]: 28.5%
inhibition [15]: Active
Activity [16]: Dose-dependent effect
inhibition [17]: Dose-dependent effect
inhibition [18]: Active
Activity [19]: Active
Activity [20]: Active
inhibition [21]: Active
inhibition [22]: Dose-dependent effect
inhibition [23]: inactive
inhibition at 0.01 µM [24]: 47.4%
inhibition [25]: Dose-dependent effect
Activity [26]: Active
inhibition at 0.001 µM [27]: 13%
Activity [28]: Active
Activity [29]: Active
Activity [30]: Dose-dependent effect
